In PMC9817970 (Cancers, 2022):

Legend:
Assay in all cases: Kinase panel profiling
Type in all cases: biochemical
Conditions in all cases: 10 μM ATP
ERK2/MAPK1 = molecular target: T1, ERK2/MAPK1 (Homo sapiens, UniProt P28482)
T1 construct: purchased Reaction Biology Corp
Protocol: (§1) Kinase panel profiling was conducted by Reaction Biology Corp. (San Diego, CA, USA). A single dose (1.0 μM) of 6r was tested against 371 recombinant human kinases in the presence of 10 μM ATP.

PAK6 = molecular target: T2, PAK6 (Homo sapiens, UniProt Q9NQU5)
T2 construct: purchased Reaction Biology Corp
Protocol: as §1

PKCd = molecular target: T3, PKCd (Homo sapiens, UniProt Q05655)
T3 construct: purchased Reaction Biology Corp
Protocol: as §1

BRK = molecular target: T4, BRK (Homo sapiens, UniProt Q13882)
T4 construct: purchased Reaction Biology Corp
Protocol: as §1

GSK3b = molecular target: T5, GSK3b (Homo sapiens, UniProt P49841)
T5 construct: purchased Reaction Biology Corp
Protocol: as §1

CLK4 = molecular target: T6, CLK4 (Homo sapiens, UniProt Q9HAZ1)
T6 construct: purchased Reaction Biology Corp
Protocol: as §1

GRK3 = molecular target: T7, GRK3 (Homo sapiens, UniProt P35626)
T7 construct: purchased Reaction Biology Corp
Protocol: as §1

PIM2 = molecular target: T8, PIM2 (Homo sapiens, UniProt Q9P1W9)
T8 construct: purchased Reaction Biology Corp
Protocol: as §1

ITK = molecular target: T9, ITK (Homo sapiens, UniProt Q08881)
T9 construct: purchased Reaction Biology Corp
Protocol: as §1

NEK11 = molecular target: T10, NEK11 (Homo sapiens, UniProt Q8NG66)
T10 construct: purchased Reaction Biology Corp
Protocol: as §1

TEC = molecular target: T11, TEC (Homo sapiens, UniProt P42680)
T11 construct: purchased Reaction Biology Corp
Protocol: as §1

IGF1R = molecular target: T12, IGF1R (Homo sapiens, UniProt P08069)
T12 construct: purchased Reaction Biology Corp
Protocol: as §1

MST2/STK3 = molecular target: T13, MST2/STK3 (Homo sapiens, UniProt Q13188)
T13 construct: purchased Reaction Biology Corp
Protocol: as §1

IRAK1 = molecular target: T14, IRAK1 (Homo sapiens, UniProt P51617)
T14 construct: purchased Reaction Biology Corp
Protocol: as §1

MSSK1/STK23 = molecular target: T15, MSSK1/STK23 (Homo sapiens, UniProt Q9UPE1)
T15 construct: purchased Reaction Biology Corp
Protocol: as §1

STK16 = molecular target: T16, STK16 (Homo sapiens, UniProt O75716)
T16 construct: purchased Reaction Biology Corp
Protocol: as §1

PKCeta = molecular target: T17, PKCeta (Homo sapiens, UniProt P24723)
T17 construct: purchased Reaction Biology Corp
Protocol: as §1

CDK6/cyclin D1 = molecular target: T18, CDK6/cyclin D1 (Homo sapiens, UniProt Q00534)
T18 construct: purchased Reaction Biology Corp
Protocol: as §1

TRKC = molecular target: T19, TRKC (Homo sapiens, UniProt Q16288)
T19 construct: purchased Reaction Biology Corp
Protocol: as §1

CDK18/cyclin Y (PCTK3) = molecular target: T20, CDK18/cyclin Y (PCTK3) (Homo sapiens, UniProt Q07002)
T20 construct: purchased Reaction Biology Corp
Protocol: as §1

CSK = molecular target: T21, CSK (Homo sapiens, UniProt P41240)
T21 construct: purchased Reaction Biology Corp
Protocol: as §1

CDK5/P25 = molecular target: T22, CDK5/P25 (Homo sapiens, UniProt Q00535)
T22 construct: purchased Reaction Biology Corp
Protocol: as §1

FGFR4 = molecular target: T23, FGFR4 (Homo sapiens, UniProt P22455)
T23 construct: purchased Reaction Biology Corp
Protocol: as §1

TESK1 = molecular target: T24, TESK1 (Homo sapiens, UniProt Q15569)
T24 construct: purchased Reaction Biology Corp
Protocol: as §1

HIPK2 = molecular target: T25, HIPK2 (Homo sapiens, UniProt Q9H2X6)
T25 construct: purchased Reaction Biology Corp
Protocol: as §1

KSR2 = molecular target: T26, KSR2 (Homo sapiens, UniProt Q6VAB6)
T26 construct: purchased Reaction Biology Corp
Protocol: as §1

HIPK3 = molecular target: T27, HIPK3 (Homo sapiens, UniProt Q9H422)
T27 construct: purchased Reaction Biology Corp
Protocol: as §1

EPHA1 = molecular target: T28, EPHA1 (Homo sapiens, UniProt P21709)
T28 construct: purchased Reaction Biology Corp
Protocol: as §1

BRSK2 = molecular target: T29, BRSK2 (Homo sapiens, UniProt Q8IWQ3)
T29 construct: purchased Reaction Biology Corp
Protocol: as §1

LOK/STK10 = molecular target: T30, LOK/STK10 (Homo sapiens, UniProt O94804)
T30 construct: purchased Reaction Biology Corp
Protocol: as §1

ULK3 = molecular target: T31, ULK3 (Homo sapiens, UniProt Q6PHR2)
T31 construct: purchased Reaction Biology Corp
Protocol: as §1

RIPK3 = molecular target: T32, RIPK3 (Homo sapiens, UniProt Q9Y572)
T32 construct: purchased Reaction Biology Corp
Protocol: as §1

CAMK2b = molecular target: T33, CAMK2b (Homo sapiens, UniProt Q13554)
T33 construct: purchased Reaction Biology Corp
Protocol: as §1

MEKK3 = molecular target: T34, MEKK3 (Homo sapiens, UniProt Q99759)
T34 construct: purchased Reaction Biology Corp
Protocol: as §1

ALK = molecular target: T35, ALK (Homo sapiens, UniProt Q9UM73)
T35 construct: purchased Reaction Biology Corp
Protocol: as §1

PLK2 = molecular target: T36, PLK2 (Homo sapiens, UniProt Q9NYY3)
T36 construct: purchased Reaction Biology Corp
Protocol: as §1

SIK2 = molecular target: T37, SIK2 (Homo sapiens, UniProt Q9H0K1)
T37 construct: purchased Reaction Biology Corp
Protocol: as §1

LKB1 = molecular target: T38, LKB1 (Homo sapiens, UniProt Q15831)
T38 construct: purchased Reaction Biology Corp
Protocol: as §1

CDK2/CYCLIN E = molecular target: T39, CDK2/CYCLIN E (Homo sapiens, UniProt P24941)
T39 construct: purchased Reaction Biology Corp
Protocol: as §1

CAMK1a = molecular target: T40, CAMK1a (Homo sapiens, UniProt Q14012)
T40 construct: purchased Reaction Biology Corp
Protocol: as §1

PAK1 = molecular target: T41, PAK1 (Homo sapiens, UniProt Q13153)
T41 construct: purchased Reaction Biology Corp
Protocol: as §1

CDK5/p35 = molecular target: T42, CDK5/p35 (Homo sapiens, UniProt Q00535)
T42 construct: purchased Reaction Biology Corp
Protocol: as §1

ERBB2/HER2 = molecular target: T43, ERBB2/HER2 (Homo sapiens, UniProt P04626)
T43 construct: purchased Reaction Biology Corp
Protocol: as §1

T29 sequence (Q8IWQ3 whole entry): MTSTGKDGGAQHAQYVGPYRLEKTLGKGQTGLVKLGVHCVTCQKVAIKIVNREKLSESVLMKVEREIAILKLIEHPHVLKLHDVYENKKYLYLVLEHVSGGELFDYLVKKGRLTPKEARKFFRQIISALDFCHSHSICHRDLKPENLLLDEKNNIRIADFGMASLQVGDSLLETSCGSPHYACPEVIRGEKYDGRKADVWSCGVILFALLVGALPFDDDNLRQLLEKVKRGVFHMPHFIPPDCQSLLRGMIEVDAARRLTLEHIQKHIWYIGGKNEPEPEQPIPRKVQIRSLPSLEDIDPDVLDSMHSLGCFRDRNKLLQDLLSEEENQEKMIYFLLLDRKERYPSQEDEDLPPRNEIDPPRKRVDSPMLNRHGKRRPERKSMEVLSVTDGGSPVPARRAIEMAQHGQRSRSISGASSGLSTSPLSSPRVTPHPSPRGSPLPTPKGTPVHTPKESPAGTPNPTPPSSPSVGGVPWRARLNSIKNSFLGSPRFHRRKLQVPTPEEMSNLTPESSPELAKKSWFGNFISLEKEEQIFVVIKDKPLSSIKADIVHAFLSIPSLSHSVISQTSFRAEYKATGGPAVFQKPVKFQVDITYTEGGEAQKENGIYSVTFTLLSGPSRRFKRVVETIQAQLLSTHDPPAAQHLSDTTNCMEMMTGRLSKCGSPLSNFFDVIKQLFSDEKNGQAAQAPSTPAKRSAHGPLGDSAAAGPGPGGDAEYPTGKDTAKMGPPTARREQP
T9 sequence (Q08881 whole entry): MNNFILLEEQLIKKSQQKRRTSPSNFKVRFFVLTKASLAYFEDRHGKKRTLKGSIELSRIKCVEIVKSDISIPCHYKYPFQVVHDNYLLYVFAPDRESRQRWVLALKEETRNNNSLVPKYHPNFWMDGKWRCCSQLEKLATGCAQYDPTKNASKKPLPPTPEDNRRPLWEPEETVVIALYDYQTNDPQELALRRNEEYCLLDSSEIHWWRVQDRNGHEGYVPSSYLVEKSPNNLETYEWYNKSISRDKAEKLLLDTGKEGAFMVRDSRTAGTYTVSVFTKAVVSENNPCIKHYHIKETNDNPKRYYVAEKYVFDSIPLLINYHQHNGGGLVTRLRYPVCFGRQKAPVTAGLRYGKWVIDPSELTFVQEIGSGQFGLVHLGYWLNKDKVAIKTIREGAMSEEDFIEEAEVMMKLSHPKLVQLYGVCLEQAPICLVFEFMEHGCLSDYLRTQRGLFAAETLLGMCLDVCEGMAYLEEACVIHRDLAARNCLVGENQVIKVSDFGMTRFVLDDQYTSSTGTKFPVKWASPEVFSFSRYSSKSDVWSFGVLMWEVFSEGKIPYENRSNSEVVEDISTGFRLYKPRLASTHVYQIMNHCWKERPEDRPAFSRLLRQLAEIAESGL
T7 sequence (P35626 whole entry): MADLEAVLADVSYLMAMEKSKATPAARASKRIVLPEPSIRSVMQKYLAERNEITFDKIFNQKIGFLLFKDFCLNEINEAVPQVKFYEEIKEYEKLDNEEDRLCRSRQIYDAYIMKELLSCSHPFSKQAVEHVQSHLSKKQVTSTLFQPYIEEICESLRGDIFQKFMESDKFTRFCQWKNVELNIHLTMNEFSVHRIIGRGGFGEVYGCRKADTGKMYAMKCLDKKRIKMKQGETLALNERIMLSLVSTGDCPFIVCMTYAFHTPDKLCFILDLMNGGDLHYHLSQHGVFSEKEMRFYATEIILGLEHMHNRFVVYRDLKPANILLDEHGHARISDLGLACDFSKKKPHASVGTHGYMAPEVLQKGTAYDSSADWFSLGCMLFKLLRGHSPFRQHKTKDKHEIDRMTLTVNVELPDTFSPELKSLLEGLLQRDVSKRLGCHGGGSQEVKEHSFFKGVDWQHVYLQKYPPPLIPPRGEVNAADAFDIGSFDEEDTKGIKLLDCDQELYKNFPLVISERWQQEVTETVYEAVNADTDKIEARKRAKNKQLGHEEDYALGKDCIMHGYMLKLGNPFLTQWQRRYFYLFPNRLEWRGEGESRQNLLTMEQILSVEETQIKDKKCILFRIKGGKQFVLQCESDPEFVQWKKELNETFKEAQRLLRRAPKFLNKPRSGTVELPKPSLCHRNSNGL
T10 sequence (Q8NG66 whole entry): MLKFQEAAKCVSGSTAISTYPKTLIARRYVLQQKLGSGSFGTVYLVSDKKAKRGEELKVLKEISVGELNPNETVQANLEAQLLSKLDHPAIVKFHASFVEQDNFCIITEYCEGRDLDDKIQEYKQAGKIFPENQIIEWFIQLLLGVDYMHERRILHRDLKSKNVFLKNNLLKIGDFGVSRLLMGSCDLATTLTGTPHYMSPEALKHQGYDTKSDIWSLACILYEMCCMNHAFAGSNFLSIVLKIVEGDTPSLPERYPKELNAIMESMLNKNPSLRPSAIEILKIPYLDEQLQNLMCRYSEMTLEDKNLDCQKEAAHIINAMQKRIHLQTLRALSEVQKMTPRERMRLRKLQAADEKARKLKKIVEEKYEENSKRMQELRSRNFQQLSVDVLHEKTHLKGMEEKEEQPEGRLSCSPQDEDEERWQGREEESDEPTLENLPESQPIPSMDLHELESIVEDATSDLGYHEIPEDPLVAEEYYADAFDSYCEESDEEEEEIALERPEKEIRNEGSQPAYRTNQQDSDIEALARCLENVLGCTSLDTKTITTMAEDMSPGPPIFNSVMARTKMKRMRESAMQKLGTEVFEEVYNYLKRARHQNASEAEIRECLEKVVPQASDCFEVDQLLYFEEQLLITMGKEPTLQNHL
T22 sequence (Q00535 whole entry): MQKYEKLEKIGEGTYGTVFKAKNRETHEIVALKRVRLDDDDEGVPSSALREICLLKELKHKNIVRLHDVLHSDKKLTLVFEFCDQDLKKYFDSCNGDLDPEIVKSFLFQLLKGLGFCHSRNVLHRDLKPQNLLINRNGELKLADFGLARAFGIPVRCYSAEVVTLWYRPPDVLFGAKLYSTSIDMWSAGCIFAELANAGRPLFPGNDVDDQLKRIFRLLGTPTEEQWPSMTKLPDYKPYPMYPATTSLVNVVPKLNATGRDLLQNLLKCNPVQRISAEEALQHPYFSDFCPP
T22 sequence (Q15078 99-307 partner limits assumed): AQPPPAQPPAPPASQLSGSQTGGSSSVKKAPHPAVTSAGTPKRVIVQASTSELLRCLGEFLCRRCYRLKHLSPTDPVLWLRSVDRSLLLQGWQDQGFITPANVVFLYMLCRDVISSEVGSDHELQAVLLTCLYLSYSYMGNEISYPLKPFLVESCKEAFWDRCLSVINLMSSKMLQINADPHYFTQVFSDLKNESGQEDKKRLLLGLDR
T42 sequence (Q00535 whole entry): as the sequence (Q00535 whole entry) above
T42 sequence (Q15078 whole entry partner): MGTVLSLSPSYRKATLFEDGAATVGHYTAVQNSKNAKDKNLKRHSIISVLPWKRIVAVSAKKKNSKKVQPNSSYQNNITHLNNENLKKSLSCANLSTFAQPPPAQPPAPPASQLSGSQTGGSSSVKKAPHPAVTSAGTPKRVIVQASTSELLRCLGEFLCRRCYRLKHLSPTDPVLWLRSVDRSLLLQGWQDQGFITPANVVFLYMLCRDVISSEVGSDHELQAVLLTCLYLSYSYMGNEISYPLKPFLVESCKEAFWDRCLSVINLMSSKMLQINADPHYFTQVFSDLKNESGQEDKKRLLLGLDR
T20 sequence (Q07002 whole entry): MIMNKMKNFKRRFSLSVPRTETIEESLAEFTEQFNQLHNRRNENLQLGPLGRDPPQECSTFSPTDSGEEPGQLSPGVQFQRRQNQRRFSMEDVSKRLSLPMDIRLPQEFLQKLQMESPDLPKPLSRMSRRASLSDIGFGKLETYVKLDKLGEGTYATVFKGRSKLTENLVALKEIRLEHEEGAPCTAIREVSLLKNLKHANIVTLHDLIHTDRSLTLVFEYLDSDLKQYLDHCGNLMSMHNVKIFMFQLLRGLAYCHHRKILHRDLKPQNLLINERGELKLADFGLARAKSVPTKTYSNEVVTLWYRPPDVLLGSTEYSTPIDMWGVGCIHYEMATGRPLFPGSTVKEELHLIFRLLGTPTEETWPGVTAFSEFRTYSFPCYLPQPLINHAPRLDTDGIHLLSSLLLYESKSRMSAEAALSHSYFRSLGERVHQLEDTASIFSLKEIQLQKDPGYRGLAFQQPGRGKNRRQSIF
T20 sequence (Q8ND76 whole entry partner): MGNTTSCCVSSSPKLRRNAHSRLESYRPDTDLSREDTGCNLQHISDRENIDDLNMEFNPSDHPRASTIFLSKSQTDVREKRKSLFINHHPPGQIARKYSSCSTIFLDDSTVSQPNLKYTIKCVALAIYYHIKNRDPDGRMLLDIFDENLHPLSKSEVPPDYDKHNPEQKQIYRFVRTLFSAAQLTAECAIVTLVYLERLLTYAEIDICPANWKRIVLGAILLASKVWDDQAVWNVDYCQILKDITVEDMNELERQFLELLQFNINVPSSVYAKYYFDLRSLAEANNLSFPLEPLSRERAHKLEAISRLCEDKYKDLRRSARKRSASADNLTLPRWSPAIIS
T8 sequence (Q9P1W9 whole entry): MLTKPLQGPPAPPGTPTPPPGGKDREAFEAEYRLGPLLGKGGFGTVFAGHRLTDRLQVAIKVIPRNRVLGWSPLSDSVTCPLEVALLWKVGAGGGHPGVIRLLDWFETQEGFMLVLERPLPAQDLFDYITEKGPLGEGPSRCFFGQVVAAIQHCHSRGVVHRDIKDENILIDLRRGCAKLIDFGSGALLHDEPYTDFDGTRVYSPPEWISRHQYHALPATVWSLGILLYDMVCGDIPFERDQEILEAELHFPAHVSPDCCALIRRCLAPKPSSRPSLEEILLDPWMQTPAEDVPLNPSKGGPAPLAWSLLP

Question: Which inhibition at 1 µM (ERK2/MAPK1) does the source give for Cc1ccc(NC(=O)c2ccc(CN3CCN(C)CC3)c(C(F)(F)F)c2)cc1-c1cnc2sc(N)nc2c1 [6r] here?
Answer: The inhibition at 1 µM was 13.5%.

Question: What about the inhibition at 1 µM (PAK6) of the same molecule?
Answer: The inhibition at 1 µM was 7.6%.

Question: What about the inhibition at 1 µM (PKCd) of the same molecule?
Answer: The inhibition at 1 µM was 10.1%.

Question: And the inhibition at 1 µM (BRK)?
Answer: The inhibition at 1 µM was 37.5%.

Question: What about the inhibition at 1 µM (GSK3b) of the same molecule?
Answer: The inhibition at 1 µM was 12.9%.

Question: And the inhibition at 1 µM (CLK4)?
Answer: The inhibition at 1 µM was 7.7%.

Question: And the inhibition at 1 µM (GRK3)?
Answer: The inhibition at 1 µM was 0%.

Question: And the inhibition at 1 µM (PIM2)?
Answer: Its inhibition at 1 µM is 0.8%.

Question: And the inhibition at 1 µM (ITK)?
Answer: The inhibition at 1 µM was 3.8%.

Question: And the inhibition at 1 µM (NEK11)?
Answer: The inhibition at 1 µM was 18.3%.

Question: And the inhibition at 1 µM (TEC)?
Answer: The inhibition at 1 µM was 1.6%.

Question: What about the inhibition at 1 µM (IGF1R) of the same molecule?
Answer: The inhibition at 1 µM was 0%.

Question: And the inhibition at 1 µM (MST2/STK3)?
Answer: Its inhibition at 1 µM is 0%.

Question: What about the inhibition at 1 µM (IRAK1) of the same molecule?
Answer: Its inhibition at 1 µM is 0%.

Question: And the inhibition at 1 µM (MSSK1/STK23)?
Answer: Its inhibition at 1 µM is 30.6%.

Question: What about the inhibition at 1 µM (STK16) of the same molecule?
Answer: Its inhibition at 1 µM is 3.6%.

Question: And the inhibition at 1 µM (PKCeta)?
Answer: The inhibition at 1 µM was 3.1%.

Question: And the inhibition at 1 µM (CDK6/cyclin D1)?
Answer: The inhibition at 1 µM was 9.1%.

Question: What about the inhibition at 1 µM (TRKC) of the same molecule?
Answer: The inhibition at 1 µM was 13.6%.

Question: And the inhibition at 1 µM (CDK18/cyclin Y (PCTK3))?
Answer: The inhibition at 1 µM was 5.1%.

Question: What about the inhibition at 1 µM (CSK) of the same molecule?
Answer: Its inhibition at 1 µM is 41.3%.

Question: And the inhibition at 1 µM (CDK5/P25)?
Answer: The inhibition at 1 µM was 8.7%.

Question: What about the inhibition at 1 µM (FGFR4) of the same molecule?
Answer: The inhibition at 1 µM was 30.1%.

Question: And the inhibition at 1 µM (TESK1)?
Answer: Its inhibition at 1 µM is 5.3%.

Question: What about the inhibition at 1 µM (HIPK2) of the same molecule?
Answer: Its inhibition at 1 µM is 0.5%.

Question: What about the inhibition at 1 µM (KSR2) of the same molecule?
Answer: Its inhibition at 1 µM is 0%.

Question: What about the inhibition at 1 µM (HIPK3) of the same molecule?
Answer: The inhibition at 1 µM was 0.2%.

Question: What about the inhibition at 1 µM (EPHA1) of the same molecule?
Answer: The inhibition at 1 µM was 8.2%.

Question: What about the inhibition at 1 µM (BRSK2) of the same molecule?
Answer: The inhibition at 1 µM was 7.2%.

Question: What about the inhibition at 1 µM (LOK/STK10) of the same molecule?
Answer: Its inhibition at 1 µM is 14%.

Question: What about the inhibition at 1 µM (ULK3) of the same molecule?
Answer: The inhibition at 1 µM was 7.2%.

Question: What about the inhibition at 1 µM (RIPK3) of the same molecule?
Answer: The inhibition at 1 µM was 82.5%.

Question: And the inhibition at 1 µM (CAMK2b)?
Answer: Its inhibition at 1 µM is 0%.

Question: And the inhibition at 1 µM (MEKK3)?
Answer: The inhibition at 1 µM was 4.9%.

Question: And the inhibition at 1 µM (ALK)?
Answer: The inhibition at 1 µM was 0%.

Question: What about the inhibition at 1 µM (PLK2) of the same molecule?
Answer: The inhibition at 1 µM was 3.9%.

Question: What about the inhibition at 1 µM (SIK2) of the same molecule?
Answer: Its inhibition at 1 µM is 5.6%.

Question: What about the inhibition at 1 µM (LKB1) of the same molecule?
Answer: The inhibition at 1 µM was 0%.

Question: And the inhibition at 1 µM (CDK2/CYCLIN E)?
Answer: The inhibition at 1 µM was 0%.

Question: What about the inhibition at 1 µM (CAMK1a) of the same molecule?
Answer: Its inhibition at 1 µM is 8%.

Question: What about the inhibition at 1 µM (PAK1) of the same molecule?
Answer: Its inhibition at 1 µM is 6.9%.

Question: And the inhibition at 1 µM (CDK5/p35)?
Answer: The inhibition at 1 µM was 0.7%.

Question: What about the inhibition at 1 µM (ERBB2/HER2) of the same molecule?
Answer: Its inhibition at 1 µM is 5.4%.
